Test [1] concerns Leishmania donovani axenic amastigote parasites. The test can be described thus: Leishmania donovani axenic amastigote proliferation assay. Format: cell-based. As to the method: Leishmania Donovani Axenic Amastigote Proliferation Assay
Leishmania donovani axenic amastigote parasites are grown at 37° C., 5% CO2 in media made of RPMI 1640, 4 mM L-glutamine, 20% heat inactivated FBS, 100 units/ml of penicillin and 100 μg/ml of streptomycin, 23 μM Folic Acid, 100 μM Adenosine, 22 mM D-glucose, 25 mM MES. The pH of media is adjusted to 5.5 at 37° C. using HCl. 20 μL of media is first dispensed into 384 well plates and 100 nL of the compounds of invention in DMSO are added to the plate wells. At the same time control compounds and DMSO are added to plates to serve as the positive and negative controls, respectively. 40 μL of parasite culture (9600 parasites) are then added to the plate wells. The plates are then placed into incubators. After 2 day incubation, 20 μL of Cell TiterGlo (Promega) is added to the plate wells. The luminescence signal of each well is measured using the Envision reader (Perkin Elmer). The percentage inhibition of 50%, EC50, is calculated for each of the compounds.

In test [2] the test system is L. donovani HU3 strain in mouse peritoneal macrophages. The test can be described thus: Assay for proliferation of Leishmania parasites in mouse peritoneal macrophages. Format: cell-based, Leishmania donovani. The following applies: Leishmania donovani, Peritoneal macrophage, read-out: L. donavani Macrophage EC50. An excerpt:
Assay for Proliferation of Leishmania Parasites
The activity of a compound according to the present invention for inhibition of parasitemai can be assessed by the parasite proliferation assay. The assay measures the increase in the parasite number in the assayed plate well using a DNA intercalating dye, SYBR Green I® dye (INVITROGEN) to stain Leishmania cell nuclei. It is understood that the assays illustrate the invention without in any way limiting the scope of the invention.
L. donovani HU3 strain is propagated by infecting BALB/c mice through tail vein injection with 10^7 Leishmania parasites. Infected mice are allowed to develop infection during 9-11 weeks post-infection. During this time, the parasites accumulate in the infected mouse spleens to large numbers, and the infected mice serve as the source of parasites for the in vitro measurement of compound efficacies. To assay a compound for anti-leishmanial activity, peritoneal macrophages isolated from non-infected BALB/c mice are seeded into 384-well plates at density 2×10^4 macrophages per well in […] of medium (RPMI 1640, 10% […], 10 mM HEPES, 1 mM sodium pyruvate, 1% Pen/Strep). Subsequently, the seeded plates are placed into an incubator set to maintain 37° C. temperature and atmosphere with 5% CO2. The next day, Leishmania parasites are isolated from the spleens of mice infected for 9-11 weeks and 4×10^5 isolated parasites in […] of the above media are added to each plate well. Plates are then returned into incubators and infection is allowed to proceed for 24 hours. After the infection of macrophages is completed, […] of compounds of the invention in the above medium, which also contains 5% DMSO, are added to plate wells containing infected macrophages. At the same time control compounds (miltefosine and amphotericin B) and DMSO are added to plates to serve as the positive and negative controls, respectively. After the compound addition, the plates are returned into incubator and cells infected with parasites are cultured for 5 days. At the end of cultivation, […] of 8% paraformaldehyde is added to plate wells and incubated for 15 min at room temperature. Following the incubation, the paraformaldehyde from plate wells is aspirated, and […] of PBS containing 0.2% Triton X-100 is added to wells. After 15 min incubation, the solution is aspirated from wells again, and replaced with SybrGreen Dye solution in PBS (1:125,000 dilution). Infected cells are imaged with Evotec Opera high-content microscope, and the number of parasites in well is determined by counting parasite nuclei visualized by staining with SybrGreen dye. The percentage inhibition of 50%, EC50, is calculated for each compound.
The inhibitory efficacy of the compounds of the invention in delaying the proliferation of L. donovani in mouse peritoneal macrophages is provided in Table I, infra.

Setting [3] is: axenic amastigotes in vitro, read-out: L. donovani amastigotes EC50.

Read-outs that look alike come from different tables or passages of the source. Where only a bound is given, the exact number is not on record here.

For orientation: EC50 means the concentration needed to bring the measured effect to its halfway point. As to `O=C(Nc1ccc(Cl)c(-c2nc3ncc(Cl)cc3[nH]2)c1)c1ccco1` [Compound 2], the half-maximal effective concentration (EC50) in test [1] (setting [3]) amounted to 1.39 µM; in test [2] it was 4 µM.
Take `Cc1ccnc2nc(-c3cc(NC(=O)c4ccco4)ccc3Cl)[nH]c12` [Compound 3]: the EC50 is above 25 µM in test [1] (setting [3]) and above 50 µM in test [2].
Consider `O=C(Nc1ccc(Cl)c(-c2nc3ncncc3[nH]2)c1)c1ccco1` [Compound 4], for which the concentration for a half-maximal effect (EC50) in test [1] (setting [3]) was 4.2 µM; in test [2], 25.5 µM.
In the same order, the values of `Cc1cc2[nH]c(-c3cc(NC(=O)c4ccco4)ccc3Cl)nc2nc1C` [Compound 5] are above 25 µM and 49.4 µM.
In the same order, the values of `CC(=O)Nc1ccccc1-c1cnc2nc(-c3cc(NC(=O)c4ccco4)ccc3Cl)[nH]c2c1` [Compound 8] are 0.75 µM and 1.72 µM.
Regarding `COc1ncc(-c2cnc3nc(-c4cc(NC(=O)c5ccco5)ccc4Cl)[nH]c3c2)cn1` [Compound 9], the concentration for a half-maximal effect (EC50) was 0.45 µM in test [1] (setting [3]) and 1.2 µM in test [2].
`O=C(Nc1ccc(Cl)c(-c2nc3ncc(-c4ccncc4)cc3[nH]2)c1)c1ccco1` [Compound 10]: the results for the EC50 in test [1] (setting [3]) and in test [2] were 0.89 µM and 1.12 µM, respectively.
In the same order, the values of `Nc1ccc(-c2cnc3nc(-c4cc(NC(=O)c5ccco5)ccc4Cl)[nH]c3c2)cc1` [Compound 12] are 0.258 µM and 0.4 µM.
For `CC(C)CC(=O)Nc1ccc(-c2cnc3nc(-c4cc(NC(=O)c5ccco5)ccc4Cl)[nH]c3c2)cc1` [Compound 13, N-(4-chloro-3-{6-[4-(3-methylbutanamido)phenyl]-1H-imidazo[4,5-b]pyridin-2-yl}phenyl)furan-2-carboxamide], the EC50 in test [1] (48 h, L. donovani axenic amastigotes, 2 day incubation, Cell TiterGlo luminescence, read-out: EC50) is around 0.08 µM; in test [1] (setting [3]), 0.083 µM; in test [2], 0.115 µM.
In the case of `O=C(Nc1ccc(Cl)c(-c2nc3ncc(-c4cnn(CCN5CCOCC5)c4)cc3[nH]2)c1)c1ccco1` [Compound 14], the figures for the concentration giving a half-maximal response (EC50) in test [1] (setting [3]) and in test [2] were 3.7 µM and 3.14 µM, respectively.
With `CN(C)Cc1ccc(-c2cnc3nc(-c4cc(NC(=O)c5ccco5)ccc4Cl)[nH]c3c2)cc1` [Compound 15], the values for the EC50 in test [1] (setting [3]) and in test [2] were 6.1 µM and 0.72 µM, respectively.
In the same order, the values of `O=C(Nc1ccc(Cl)c(-c2nc3ncc(-c4ccc(CN5CCOCC5)cc4)cc3[nH]2)c1)c1ccco1` [Compound 16] are 2.07 µM and 1.63 µM.
Taken in the same sequence, the figures for `Nc1ncc(-c2cnc3nc(-c4cc(NC(=O)c5ccco5)ccc4Cl)[nH]c3c2)cn1` [Compound 17] were 0.48 µM and 1.57 µM.
Taken in the same sequence, the figures for `CC(=O)Nc1ccc(-c2cnc3nc(-c4cc(NC(=O)c5ccco5)ccc4Cl)[nH]c3c2)cc1` [Compound 18] were 0.3 µM and 1.48 µM.
On to `CN1CCN(c2ccc(-c3cnc4nc(-c5cc(NC(=O)c6ccco6)ccc5Cl)[nH]c4c3)cc2)CC1` [Compound 22], for which the EC50 in test [1] (setting [3]) was 19 µM; in test [2], 4.6 µM.
In the same order, the values of `Nc1ccccc1-c1cnc2nc(-c3cc(NC(=O)c4ccco4)ccc3Cl)[nH]c2c1` [Compound 23] are 0.32 µM and 0.37 µM.
In the same order, the values of `Nc1ccc(-c2cnc3nc(-c4cc(NC(=O)c5ccco5)ccc4Cl)[nH]c3c2)cn1` [Compound 24] are 0.165 µM and 2.89 µM.
Taken in the same sequence, the figures for `O=C(Nc1ccc(Cl)c(-c2nc3ncc(-c4ccc(OC(F)(F)F)cc4)cc3[nH]2)c1)c1ccco1` [Compound 25] were 5.6 µM and 9.5 µM.
In the case of `O=C(Nc1ccc(Cl)c(-c2nc3ncc(-c4ccc(OCC5CCOCC5)cc4)cc3[nH]2)c1)c1ccco1` [Compound 26], the EC50 in test [1] (setting [3]) turned out to be 0.68 µM; in test [2], 2.17 µM.
In the same order, the values of `O=C(Nc1ccc(Cl)c(-c2nc3ncc(-c4ccc5c(c4)OCO5)cc3[nH]2)c1)c1ccco1` [Compound 27] are 2.66 µM and 24.4 µM.
Taken in the same sequence, the figures for `CC(C)OC(=O)Nc1ccc(-c2cnc3nc(-c4cc(NC(=O)c5ccco5)ccc4Cl)[nH]c3c2)cc1` [Compound 31] were 0.177 µM and 0.45 µM.
Take `NC(=O)Nc1ccc(-c2cnc3nc(-c4cc(NC(=O)c5ccco5)ccc4Cl)[nH]c3c2)cc1` [Compound 32]: the concentration giving a half-maximal response (EC50) is above 25 µM in test [1] (setting [3]) and 15.3 µM in test [2].
In the same order, the values of `COC(=O)c1ccc(-c2cnc3nc(-c4cc(NC(=O)c5ccco5)ccc4Cl)[nH]c3c2)cc1` [Compound 35] are 0.234 µM and 2.11 µM.
As to `CC(C)OC(=O)Nc1ccccc1-c1cnc2nc(-c3cc(NC(=O)c4ccco4)ccc3Cl)[nH]c2c1` [Compound 37], the values for the concentration giving a half-maximal response (EC50) in test [1] (setting [3]) and in test [2] were 0.46 µM and 0.55 µM, respectively.
Taken in the same sequence, the figures for `C[C@@H](CO)NCc1cnc2nc(-c3cc(NC(=O)c4ccco4)ccc3Cl)[nH]c2c1` [Compound 38] were above 25 µM and above 50 µM.
In the same order, the values of `Cc1cc(-c2cnc3nc(-c4cc(NC(=O)c5ccco5)ccc4Cl)[nH]c3c2)cc(C)n1` [Compound 39] are 0.57 µM and 9.6 µM.
Taken in the same sequence, the figures for `O=C(Nc1ccc(Cl)c(-c2nc3ncc(-c4ccc(OCCn5cccn5)cc4)cc3[nH]2)c1)c1ccco1` [Compound 40] were 0.61 µM and 0.97 µM.
Consider `O=C(Nc1cccc(-c2nc3ncc(-c4ccc(OC(F)(F)F)cc4)cc3[nH]2)c1)c1ccco1` [Compound 41], for which the EC50 in test [1] (setting [3]) worked out at 5.9 µM; in test [2] it was 2.2 µM.
In the same order, the values of `O=C1NC(=O)C(c2ccc(-c3cnc4nc(-c5cc(NC(=O)c6ccco6)ccc5Cl)[nH]c4c3)cc2)N1` (centres unmarked) [Compound 42] are 1.39 µM and 4 µM.
Taken in the same sequence, the figures for `Cc1cc(COc2ccc(-c3cnc4nc(-c5cc(NC(=O)c6ccco6)ccc5Cl)[nH]c4c3)cc2)no1` [Compound 44] were 0.283 µM and 0.82 µM.
Taken in the same sequence, the figures for `O=C(Nc1ccc(-c2cnc3nc(-c4cc(NC(=O)c5ccco5)ccc4Cl)[nH]c3c2)cc1)NC1CC1` [Compound 45] were 1.47 µM and 3.4 µM.
For the compound `CC(C)C(=O)Nc1ccc(-c2cnc3nc(-c4cc(NC(=O)c5ccco5)ccc4Cl)[nH]c3c2)cc1` [Compound 53], the figures for the concentration for a half-maximal effect (EC50) in test [1] (setting [3]) and in test [2] were 0.112 µM and 0.154 µM, respectively.
Taken in the same sequence, the figures for `CNC(=O)c1ccc(-c2cnc3nc(-c4cc(NC(=O)c5ccco5)ccc4Cl)[nH]c3c2)cn1` [Compound 54] were 0.226 µM and 0.272 µM.
Taken in the same sequence, the figures for `O=C(Nc1ccc(Cl)c(-c2nc3ncc(-c4ccc(OCCN5CCCC5)cc4)cc3[nH]2)c1)c1ccco1` [Compound 55] were 2.06 µM and 6.7 µM.
Taken in the same sequence, the figures for `O=C(Nc1ccc(Cl)c(-c2nc3ncc(-c4ccc(-n5cccn5)cc4)cc3[nH]2)c1)c1ccco1` [Compound 56] were 3.2 µM and 16 µM.
As to `CNC(=O)Nc1ccc(-c2cnc3nc(-c4cc(NC(=O)c5ccco5)ccc4Cl)[nH]c3c2)cc1` [Compound 57], the figures for the EC50 in test [1] (setting [3]) and in test [2] were 1.83 µM and above 50 µM, respectively.
Take `COCCOc1ccc(-c2cnc3nc(-c4cc(NC(=O)c5ccco5)ccc4Cl)[nH]c3c2)cc1` [Compound 60]: the EC50 in test [1] (setting [3]) was determined as 0.8 µM; in test [2], 3.5 µM.
In the same order, the values of `CNC(=O)c1ccc(-c2cnc3nc(-c4cc(NC(=O)c5ccco5)ccc4Cl)[nH]c3c2)cc1` [Compound 64] are 0.68 µM and above 28.9 µM.

For the origin of these results see patent publication US9233961B2, “Compounds and compositions for the treatment of parasitic diseases” (Novartis AG, priority 2013, dated 2016).
